Results from ChEMBL document CHEMBL1201862, “PubChem BioAssay data set” (2004).
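Cultured in 96-well plates, cells were exposed to test compound for 48 hours across five concentrations. GI50 is the concentration that inhibits growth by half.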 The source made the active and inactive calls. No stated cut-off is given here; in the data, active = GI50 up to about 1.1 µM and inactive = higher.

What was measured:
Assay in all cases: inhibition of tumour cell growth, NCI panel, 48 h
[1] = system: 786-0
[2] = system: A498
[3] = system: A549
[4] = system: ACHN
[5] = system: BT-549
[6] = system: CAKI-1
[7] = system: CCRF-CEM
[8] = system: COLO 205
[9] = system: DLD-1
[10] = system: DMS-114
[11] = system: DMS-273
[12] = system: DU-145
[13] = system: EKVX
[14] = system: HCC 2998
[15] = system: HCT-116
[16] = system: HCT-15
[17] = system: HOP-18
[18] = system: HOP-92
[19] = system: HT-29
[20] = system: Hs-578T
[21] = system: IGROV-1
[22] = system: K562
[23] = system: KM-20L2
[24] = system: KM12
[25] = system: LOX IMVI
[26] = system: LXFL 529
[27] = system: M14
[28] = system: M19-MEL
[29] = system: MCF7
[30] = system: MDA-MB-231
[31] = system: MDA-MB-435
[32] = system: MDA-N
[33] = system: MOLT-4
[34] = system: Malme-3M
[35] = system: NCI-H226
[36] = system: NCI-H23
[37] = system: NCI-H460
[38] = system: NCI-H522
[39] = system: OVCAR-4
[40] = system: OVCAR-5
[41] = system: OVCAR-8
[42] = system: PC-3
[43] = system: RPMI-8226
[44] = system: RXF 393
[45] = system: RXF 631
[46] = system: SF-268
[47] = system: SF-295
[48] = system: SF-539
[49] = system: SK-MEL-28
[50] = system: SK-MEL-2
[51] = system: SK-MEL-5
[52] = system: SK-OV-3
[53] = system: SN12C
[54] = system: SNB-19
[55] = system: SNB-75
[56] = system: SNB-78
[57] = system: SR
[58] = system: SW-620
[59] = system: T47D
[60] = system: TK-10
[61] = system: U-251
[62] = system: UACC-257
[63] = system: UACC-62
[64] = system: UO-31
[65] = system: XF498

Nc1ncnc2c(C3OC(CO)C(O)C3O)c[nH]c12 (stereo not given)
GI50 [1]: 3.17 nM (active)
GI50 [2]: 21.3 nM (active)
GI50 [3]: 3.99 nM (active)
GI50 [4]: 1.25 nM (active)
GI50 [5]: 13.8 nM (active)
GI50 [6]: 3.06 nM (active)
GI50 [7]: 2.24 nM (active)
GI50 [8]: 10 nM (active)
GI50 [9]: 0.728 nM (active)
GI50 [10]: 4.21 nM (active)
GI50 [11]: 10 nM (active)
GI50 [12]: 6 nM (active)
GI50 [13]: 14.4 nM (active)
GI50 [14]: 6.21 nM (active)
GI50 [15]: 10 nM (active)
GI50 [16]: 3.72 nM
GI50 [17]: 8.09 nM (active)
GI50 [18]: < 15 nM (active)
GI50 [19]: 5.6 nM (active)
GI50 [20]: 1.29 nM (active)
GI50 [21]: 4.22 nM (active)
GI50 [22]: 2.38 nM (active)
GI50 [23]: 2.76 nM (active)
GI50 [24]: 5.33 nM (active)
GI50 [25]: 2.82 nM (active)
GI50 [26]: 4.82 nM (active)
GI50 [27]: 12.3 nM (active)
GI50 [28]: 13.9 nM (active)
GI50 [29]: 15.2 nM (active)
GI50 [30]: 7.8 nM (active)
GI50 [31]: 31.4 nM (active)
GI50 [32]: 13.1 nM (active)
GI50 [33]: 3.36 nM (active)
GI50 [34]: < 13.5 nM (active)
GI50 [35]: < 13.8 nM (active)
GI50 [36]: 13.1 nM (active)
GI50 [37]: 2.69 nM (active)
GI50 [38]: 6.14 nM (active)
GI50 [39]: 14.6 nM (active)
GI50 [40]: 8.04 nM (active)
GI50 [41]: 2.27 nM (active)
GI50 [42]: 5.15 nM (active)
GI50 [43]: 2.56 nM (active)
GI50 [44]: 3.01 nM (active)
GI50 [45]: 7.76 nM (active)
GI50 [46]: 10 nM (active)
GI50 [47]: 10 nM (active)
GI50 [48]: 8.13 nM (active)
GI50 [49]: < 21.8 nM (active)
GI50 [50]: 10 nM (active)
GI50 [51]: 5.64 nM (active)
GI50 [52]: 0.552 nM (active)
GI50 [53]: 3.77 nM (active)
GI50 [54]: 13.1 nM (active)
GI50 [55]: 3.28 nM (active)
GI50 [56]: 10 nM (active)
GI50 [57]: 2.98 nM (active)
GI50 [58]: 1.95 nM (active)
GI50 [59]: 4.05 nM (active)
GI50 [60]: 70.5 nM (active)
GI50 [61]: 8.47 nM (active)
GI50 [62]: 18.5 nM (active)
GI50 [63]: 7.18 nM (active)
GI50 [64]: 4.26 nM (active)
GI50 [65]: 8.81 nM (active)
